Measurements published in PubChem BioAssay AID1919001 (Molecular Pharmacology Branch, DTP, NCI, 2023).
Blank lines part the entries; values can stand above or below the compound they belong to.

System: 699152-130-R-J1-PDC complex spheroid growth
Assay: Anticancer human tumor 699152-130-R-J1-PDC patient-derived pancreatic carcinoma cell line growth inhibition [AhR]
Conditions: for IC50: curve of first compound; for viability, T/C: stronger effect = lower value
How it was run: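 Spheroids combined tumor cells with HUVEC endothelial cells and human MSCs as stroma. AhR antagonists were paired with standard or investigational drugs, each dosed in half-log steps down from near clinical Cmax, or from 10 microM where Cmax was unknown.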
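Also: compound exposure lasted 7 days after spheroids had grown for 3 days.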

IC50 (second compound 0.1 µM): > 10 µM
IC50 (second compound 0.316 µM): > 10 µM
IC50 (second compound 1 µM): > 10 µM
IC50 (second compound 3.16 µM): > 10 µM
IC50 (second compound 10 µM): < 0.0316 µM
Compound: CC1(C)CCC(CN2CCN(c3ccc(C(=O)NS(=O)(=O)c4ccc(NCC5CCOCC5)c([N+](=O)[O-])c4)c(Oc4cnc5[nH]ccc5c4)c3)CC2)=C(c2ccc(Cl)cc2)C1 + Cc1cncc(-c2nc(NCCc3c[nH]c4ccccc34)c3ncn(C(C)C)c3n2)c1
viability, T/C (second compound 0.1 µM, first compound 0.0316 µM): 101%
viability, T/C (second compound 0.1 µM, first compound 0.1 µM): 111%
viability, T/C (second compound 0.1 µM, first compound 0.316 µM): 124%
viability, T/C (second compound 0.1 µM, first compound 1 µM): 106%
viability, T/C (second compound 0.1 µM, first compound 3.16 µM): 109%
viability, T/C (second compound 0.1 µM, first compound 10 µM): 97.4%
viability, T/C (second compound 0.316 µM, first compound 0.0316 µM): 114%
viability, T/C (second compound 0.316 µM, first compound 0.1 µM): 110%
viability, T/C (second compound 0.316 µM, first compound 0.316 µM): 105%
viability, T/C (second compound 0.316 µM, first compound 1 µM): 107%
viability, T/C (second compound 0.316 µM, first compound 3.16 µM): 114%
viability, T/C (second compound 0.316 µM, first compound 10 µM): 121%
viability, T/C (second compound 1 µM, first compound 0.0316 µM): 127%
viability, T/C (second compound 1 µM, first compound 0.1 µM): 134%
viability, T/C (second compound 1 µM, first compound 0.316 µM): 127%
viability, T/C (second compound 1 µM, first compound 1 µM): 117%
viability, T/C (second compound 1 µM, first compound 3.16 µM): 120%
viability, T/C (second compound 1 µM, first compound 10 µM): 128%
viability, T/C (second compound 3.16 µM, first compound 0.0316 µM): 121%
viability, T/C (second compound 3.16 µM, first compound 0.1 µM): 127%
viability, T/C (second compound 3.16 µM, first compound 0.316 µM): 130%
viability, T/C (second compound 3.16 µM, first compound 1 µM): 123%
viability, T/C (second compound 3.16 µM, first compound 3.16 µM): 125%
viability, T/C (second compound 3.16 µM, first compound 10 µM): 128%
viability, T/C (second compound 10 µM, first compound 0.0316 µM): 19.8%
viability, T/C (second compound 10 µM, first compound 0.1 µM): 18.4%
viability, T/C (second compound 10 µM, first compound 0.316 µM): 23.2%
viability, T/C (second compound 10 µM, first compound 1 µM): 23.7%
viability, T/C (second compound 10 µM, first compound 3.16 µM): 27.9%
viability, T/C (second compound 10 µM, first compound 10 µM): 22.8%

IC50 (second compound 0.1 µM): > 3 µM
IC50 (second compound 0.316 µM): > 3 µM
IC50 (second compound 1 µM): > 3 µM
IC50 (second compound 3.16 µM): > 3 µM
IC50 (second compound 10 µM): < 0.00949 µM
Compound: CCN(c1cc(-c2ccc(CN3CCOCC3)cc2)cc(C(=O)NCc2c(C)cc(C)[nH]c2=O)c1C)C1CCOCC1 + Cc1cncc(-c2nc(NCCc3c[nH]c4ccccc34)c3ncn(C(C)C)c3n2)c1
viability, T/C (second compound 0.1 µM, first compound 0.00949 µM): 101%
viability, T/C (second compound 0.1 µM, first compound 0.03 µM): 110%
viability, T/C (second compound 0.1 µM, first compound 0.0949 µM): 113%
viability, T/C (second compound 0.1 µM, first compound 0.3 µM): 120%
viability, T/C (second compound 0.1 µM, first compound 0.949 µM): 98.2%
viability, T/C (second compound 0.1 µM, first compound 3 µM): 120%
viability, T/C (second compound 0.316 µM, first compound 0.00949 µM): 88.9%
viability, T/C (second compound 0.316 µM, first compound 0.03 µM): 94.4%
viability, T/C (second compound 0.316 µM, first compound 0.0949 µM): 112%
viability, T/C (second compound 0.316 µM, first compound 0.3 µM): 98.9%
viability, T/C (second compound 0.316 µM, first compound 0.949 µM): 103%
viability, T/C (second compound 0.316 µM, first compound 3 µM): 98.7%
viability, T/C (second compound 1 µM, first compound 0.00949 µM): 121%
viability, T/C (second compound 1 µM, first compound 0.03 µM): 116%
viability, T/C (second compound 1 µM, first compound 0.0949 µM): 116%
viability, T/C (second compound 1 µM, first compound 0.3 µM): 131%
viability, T/C (second compound 1 µM, first compound 0.949 µM): 119%
viability, T/C (second compound 1 µM, first compound 3 µM): 112%
viability, T/C (second compound 3.16 µM, first compound 0.00949 µM): 110%
viability, T/C (second compound 3.16 µM, first compound 0.03 µM): 106%
viability, T/C (second compound 3.16 µM, first compound 0.0949 µM): 114%
viability, T/C (second compound 3.16 µM, first compound 0.3 µM): 116%
viability, T/C (second compound 3.16 µM, first compound 0.949 µM): 114%
viability, T/C (second compound 3.16 µM, first compound 3 µM): 112%
viability, T/C (second compound 10 µM, first compound 0.00949 µM): 28.7%
viability, T/C (second compound 10 µM, first compound 0.03 µM): 30.9%
viability, T/C (second compound 10 µM, first compound 0.0949 µM): 28.9%
viability, T/C (second compound 10 µM, first compound 0.3 µM): 23.5%
viability, T/C (second compound 10 µM, first compound 0.949 µM): 22.4%
viability, T/C (second compound 10 µM, first compound 3 µM): 11.3%
